Measurements published in publication PMC6913630, “Novel benzofuran-based sulphonamides as selective carbonic anhydrases IX and XII inhibitors: synthesis and in vitro biological evaluation” (Journal of Enzyme Inhibition and Medicinal Chemistry, 2019).

Columns and labels:
Test in all cases: stopped-flow CO2 hydration
Type in all cases: biochemical
hCA XII = target: T1, hCA XII (Homo sapiens, UniProt O43570)
T1 construct: gene CA12; not described; transmembrane tumour-associated isoform
Excerpt: stopped-flow CO2 hydration on hCA XII

hCA II = target: T2, hCA II (Homo sapiens, UniProt P00918)
T2 construct: gene CA2; not described; cytosolic isoform
Excerpt: stopped-flow CO2 hydration on hCA II

hCA IX = target: T3, hCA IX (Homo sapiens, UniProt Q16790)
T3 construct: gene CA9; not described; transmembrane tumour-associated isoform
Excerpt: stopped-flow CO2 hydration on hCA IX

hCA I = target: T4, hCA I (Homo sapiens, UniProt P00915)
T4 construct: gene CA1; not described; cytosolic isoform
Excerpt: stopped-flow CO2 hydration on hCA I

T4 sequence (P00915 2-261): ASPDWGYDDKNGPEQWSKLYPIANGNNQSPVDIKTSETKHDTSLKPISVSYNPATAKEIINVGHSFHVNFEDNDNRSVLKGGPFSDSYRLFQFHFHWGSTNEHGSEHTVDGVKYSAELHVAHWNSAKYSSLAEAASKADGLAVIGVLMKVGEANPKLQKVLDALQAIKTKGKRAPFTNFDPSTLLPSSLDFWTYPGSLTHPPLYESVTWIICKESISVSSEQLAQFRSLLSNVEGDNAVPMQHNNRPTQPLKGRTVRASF
T1 sequence (O43570 25-354): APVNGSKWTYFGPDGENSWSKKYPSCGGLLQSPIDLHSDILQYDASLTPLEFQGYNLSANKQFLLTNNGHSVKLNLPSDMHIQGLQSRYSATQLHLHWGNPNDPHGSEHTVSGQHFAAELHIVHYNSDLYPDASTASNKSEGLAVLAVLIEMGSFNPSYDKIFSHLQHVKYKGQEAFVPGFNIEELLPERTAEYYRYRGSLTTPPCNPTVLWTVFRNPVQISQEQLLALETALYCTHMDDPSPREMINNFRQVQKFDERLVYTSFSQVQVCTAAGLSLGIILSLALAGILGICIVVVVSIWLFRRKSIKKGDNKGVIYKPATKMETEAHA

Compound | Ki (hCA XII) [nM] | Ki (hCA II) [nM] | Ki (hCA IX) [nM] | Ki (hCA I) [nM]
CC(=NNc1ccc(S(N)(=O)=O)cc1)c1cc2ccccc2o1 [4a, 4–(2-(1-(Benzofuran-2-yl)ethylidene)hydrazineyl)benzenesulfonamide] | 26.9 | 12.3 | 33.3 | 163
Cc1ccc(S(=O)(=O)CC(=NNc2ccc(S(N)(=O)=O)cc2)c2cc3cc(Br)ccc3o2)cc1 [9c, 4–(2-(1–(5-Bromobenzofuran-2-yl)-2-tosylethylidene)hydrazineyl)benzenesulfonamide] | 16.7 | 571 | 10 | 2500
NS(=O)(=O)c1ccc(NN=C(CS(=O)(=O)c2ccccc2)c2cc3cc(Br)ccc3o2)cc1 [9b, 4–(2-(1–(5-Bromobenzofuran-2-yl)-2-(phenylsulfonyl)ethylidene)hydrazineyl)benzenesulfonamide] | 33.4 | 888 | 44.6 | 2160
CC(=NNC(=O)c1ccc(S(N)(=O)=O)cc1)c1cc2ccccc2o1 [5a, 4–(2-(1-(Benzofuran-2-yl)ethylidene)hydrazine-1-carbonyl)benzenesulfonamide] | 10.1 | 33.6 | 60.4 | 37.4
Cc1ccc(S(=O)(=O)CC(=NNc2ccc(S(N)(=O)=O)cc2)c2cc3ccccc3o2)cc1 [9a, 4–(2-(1-(Benzofuran-2-yl)-2-tosylethylidene)hydrazineyl)benzenesulfonamide] | 49.7 | 644 | 32.8 | 1290
CC(=NNc1ccc(S(N)(=O)=O)cc1)c1cc2cc(Br)ccc2o1 [4b, 4–(2-(1–(5-Bromobenzofuran-2-yl)ethylidene)hydrazineyl)benzenesulfonamide] | 38.8 | 73.5 | 48.4 | 92.7
CC(=NNC(=O)c1ccc(S(N)(=O)=O)cc1)c1cc2cc(Br)ccc2o1 [5b, 4–(2-(1–(5-Bromobenzofuran-2-yl)ethylidene)hydrazine-1-carbonyl)benzenesulfonamide] | 32.5 | 44.2 | 27.7 | 63.9

The remaining lines, values ahead:

Ki (hCA XII) [nM] | Ki (hCA II) [nM] | Ki (hCA IX) [nM] | Ki (hCA I) [nM] | Compound
66.8 | 439 | 85.4 | 1820 | NS(=O)(=O)c1ccc(C(=O)NN=C(CS(=O)(=O)c2ccccc2)c2cc3cc(Br)ccc3o2)cc1 [10c, 4–(2-(1–(5-Bromobenzofuran-2-yl)-2-(phenylsulfonyl)ethylidene)hydrazine-1-carbonyl)benzenesulfonamide]
38.9 | 229 | 51.1 | 3920 | Cc1ccc(S(=O)(=O)CC(=NNC(=O)c2ccc(S(N)(=O)=O)cc2)c2cc3ccccc3o2)cc1 [10b, 4–(2-(1-(Benzofuran-2-yl)-2-tosylethylidene)hydrazine-1-carbonyl)benzenesulfonamide]
27.5 | 727 | 97.5 | 828 | Cc1ccc(S(=O)(=O)CC(=NNC(=O)c2ccc(S(N)(=O)=O)cc2)c2cc3cc(Br)ccc3o2)cc1 [10d, 4–(2-(1–(5-Bromobenzofuran-2-yl)-2-tosylethylidene)hydrazine-1-carbonyl)benzenesulfonamide]
71.8 | 354 | 76.6 | 4620 | NS(=O)(=O)c1ccc(C(=O)NN=C(CS(=O)(=O)c2ccccc2)c2cc3ccccc3o2)cc1 [10a, 4–(2-(1-(Benzofuran-2-yl)-2-(phenylsulfonyl)ethylidene)hydrazine-1-carbonyl)benzenesulfonamide]
